Source: patent US5885987A, “Phenylene derivatives” (Kowa Co., Ltd., priority 1996, dated 1999)

Key:
LTD4 receptor = target: T1, LTD4 receptor (Cavia porcellus, UniProt Q2NNR5); assay: LTD4 receptor binding inhibition test ([^3 H]leukotriene D4, guinea pig pulmomembranous protein); details: for Kd: read-out: LTD4 receptor, dissociation constant KD; for inhibition at 10 µM: b: 10 μM; for inhibition at 10 µM / inhibition at 100 µM: read-out: LTD4 receptor (%), inhibition rate; for inhibition at 100 µM: a: 100 μM
T1 construct: guinea pig pulmomembranous protein; from tissue; host or cells: guinea pig lung membranes
T1 sequence (Q2NNR5 1-340): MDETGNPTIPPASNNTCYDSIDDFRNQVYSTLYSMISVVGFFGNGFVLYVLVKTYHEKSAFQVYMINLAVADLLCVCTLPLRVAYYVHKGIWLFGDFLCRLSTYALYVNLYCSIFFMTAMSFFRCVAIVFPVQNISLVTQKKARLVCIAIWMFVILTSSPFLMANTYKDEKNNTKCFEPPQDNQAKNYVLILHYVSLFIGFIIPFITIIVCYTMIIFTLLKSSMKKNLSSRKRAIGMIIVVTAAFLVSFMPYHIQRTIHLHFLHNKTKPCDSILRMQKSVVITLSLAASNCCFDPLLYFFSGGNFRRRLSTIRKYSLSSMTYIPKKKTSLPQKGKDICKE
Description: 2) LTD4 Receptor Binding Inhibition Test
An ice-cooled tris hydrochloride/sodium chloride buffer (10 mM/100 mM, pH 7.5) was added to terminate the reaction, followed by immediate filtration through a Wattman CF/C filter. The filter was washed twice with 20 ml aliguots of the ice-cooled buffer. The radioactivity of the residue was measured by a liquid scintillation counter. […] In a binding assay, 2 μM leukotriene D4 was used for the measurement of a nonspecific binding.

H1 receptor = target: T2, H1 receptor (Cavia porcellus, UniProt P31389); assay: H1 receptor binding inhibition test ([^3 H]mepyramin, guinea pig cerebromembranous protein); details: for Kd: read-out: H1 receptor, dissociation constant KD; for inhibition at 100 µM: a: 100 μM, read-out: H1 receptor (%), inhibition rate
T2 construct: guinea pig cerebromembranous protein; from tissue; host or cells: guinea pig cerebral (brain) membranes
Description: 1) H1 Receptor Binding Inhibition Test
An ice-cooled phosphate buffer was added to terminate the reaction, followed by immediate filtration through a Wattman CF/C filter. The filter was washed twice with 20 ml aliquots of the ice-cooled buffer. The radioactivity of the residue was measured by a liquid scintillation counter. From a measurement value obtained without the addition of the test compound and measurements values obtained upon addition of the test compound at various concentrations, the dose-response of the inhibitory action of the test compound was measured and the 50% inhibitory concentration (IC50) was determined. Using the Cheng-Prusoff formula, a dissociation constant was calculated from the IC50. In a binding assay, 10^-4 M R(-)dimethindene was used for the measurement of a nonspecific binding.

T2 sequence (P31389 whole entry): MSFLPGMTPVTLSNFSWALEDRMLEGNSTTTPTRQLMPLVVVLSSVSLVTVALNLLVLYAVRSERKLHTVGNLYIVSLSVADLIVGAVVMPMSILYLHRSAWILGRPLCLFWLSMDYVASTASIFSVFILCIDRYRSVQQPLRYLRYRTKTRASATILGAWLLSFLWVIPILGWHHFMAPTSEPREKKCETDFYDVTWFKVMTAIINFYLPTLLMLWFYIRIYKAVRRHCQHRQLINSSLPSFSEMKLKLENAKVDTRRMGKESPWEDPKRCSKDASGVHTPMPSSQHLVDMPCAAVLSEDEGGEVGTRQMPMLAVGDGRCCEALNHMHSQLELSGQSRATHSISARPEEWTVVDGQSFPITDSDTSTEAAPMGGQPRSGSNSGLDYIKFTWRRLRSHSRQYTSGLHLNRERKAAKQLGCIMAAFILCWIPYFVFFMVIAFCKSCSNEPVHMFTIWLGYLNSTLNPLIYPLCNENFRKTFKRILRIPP

SMILES | Kd (LTD4 receptor) [nM] | also measured
CCOCCn1c(COc2ccc(COc3ccc(C)c4c3C(C)(C)C(=O)N4)cc2)nc2ccccc21 [Example 45, 4-[4-(N-ethoxylethylbenzimidazol-2-yl-methoxy)benzyloxy]-3,3,7-trimethyl-2,3-dihydro-1H-indol-2-one] | – | inhibition at 10 µM (LTD4 receptor): 32%; inhibition at 100 µM (H1 receptor): 40%
O=C1CCc2ccc(OCc3ccc(OCc4nc5ccccc5s4)cc3)cc2N1 [Example 42, 7-(4-(2-benzothiazolylmethoxy)benzyloxy]-1,2,3,4-tetrahydroquinolin-2-one] | – | inhibition at 10 µM (LTD4 receptor): 17%; Kd (H1 receptor): 83600 nM
O=C1CS(=O)(=O)c2cc(OCc3cccc(OCc4ccc5ccccc5n4)c3)ccc2N1 [Example 74, 7-[3-(2-quinolinylmethoxy)benzyloxy]-3,4-dihydro-2H-1,4-benzothiazin-3-one1,1-dioxide] | 235000 | –
Cc1ccc(OCc2cccc(OCc3ccc4ccccc4n3)c2)c2cc(C(=O)O)c(=O)[nH]c12 [Example 51, 8-methyl-2-oxo-5-[3-(2-quinolinylmethoxy)benzyloxy]-1,2-dihydroquinoline-3-carboxylic acid] | 11700 | –
Cc1ccc(OCc2ccc(OCc3ccc4ccccc4n3)cc2)c2cc(C#N)c(=O)[nH]c12 [Example 19, 3-Cyano-8-methyl-5-[4-(2-quinolinylmethoxy)benzyloxy]-1,2-dihydroquinolin-2-one] | – | inhibition at 100 µM (LTD4 receptor): 0%
Cc1ccc(OCc2cccc(OCc3ccc4ccccc4n3)c2)c2c1NC(=S)C2(C)C [Example 49, 4-[3-(2-quinolinylmethoxy)benzyloxy]-3,3,7-trimethyl-2,3-dihydro-1H-indol-2-thione] | 40000 | –
O=C1CSc2cc(NC(=O)c3ccc(OCc4ccc5ccccc5n4)cc3)ccc2N1 [Example 73] | – | inhibition at 10 µM (LTD4 receptor): 20%
Cc1ccc(OCc2cccc(OCc3ccc4ccccc4n3)c2)c2cc(Cl)c(=O)[nH]c12 [Example 4] | – | inhibition at 100 µM (LTD4 receptor): 0%
Cc1ccc(OC(=O)c2ccc(OCc3ccc4ccccc4n3)cc2)c2cc(C#N)c(=O)[nH]c12 [Example 62, 3-Cyano-8-methyl-5-[4-(2-quinolinylmethoxy)benzoyloxy]-1,2-dihydroquinolin-2-one] | – | LTD4 receptor (%), inhibition rate (LTD4 receptor; concentration not given): 0%
O=C1CSc2cc(OC(=O)c3ccc(OCc4ccc5ccccc5n4)cc3)ccc2N1 [Example 66, 7-[4-(2-Quinolinylmethoxy)benzoyloxy]-3 4-dihydro-2H-1,4-benzothiazin-3-one] | – | inhibition at 10 µM (LTD4 receptor): 28%
Cc1ccc(OCc2ccc(OCc3ccc4ccccc4n3)cc2)c2cc(Cl)c(=O)[nH]c12 [Example 20, 3-Chloro-8-methyl-5-[4-(2-quinolinylmethoxy)benzyloxy]-1,2-dihydroquinolin-2-one] | – | inhibition at 100 µM (LTD4 receptor): 0%
O=C1CSc2cc(OCc3ccc(OCc4ccc5ccccc5n4)cc3)ccc2N1 [Example 26, 7-[4-(2-Quinolinylmethoxy)benzyloxy]-3,4-dihydro-2H-1,4-benzothiazin-3-one] | 546000 | –
O=C1CSc2cc(OC(=O)c3cccc(OCc4ccc5ccccc5n4)c3)ccc2N1 [Example 58, 7-[3-(2-Quinolinylmethoxy]benzoyloxy]-3,4-dihydro-2H-1,4-benzothiazin-3-one] | – | inhibition at 100 µM (LTD4 receptor): 0%

The next lines start with results.

Kd (LTD4 receptor) [nM] | SMILES | also measured
304 | O=C1CCc2ccc(OCc3cccc(OCc4ccc5ccc(Cl)cc5n4)c3)cc2N1 [Example 31, 7-[3-(7-chloro-2-quinolinylmethoxy)benzyloxy]-1,2,3,4-tetrahydroquinolin-2-one] | Kd (H1 receptor): 19800 nM
22 | O=C1CCSc2cc(OCc3cccc(OCc4ccc5ccccc5n4)c3)ccc2N1 [Example 11, 8-[3-(2-Quinolinylmethoxy)benzyloxy]-2,3,4,5-tetrahydro-1,5-benzothiazepin-4-one] | inhibition at 100 µM (H1 receptor): 47%
500 | O=C1CCc2ccc(OCc3ccc(OCc4ccc5ccccc5n4)cc3)cc2N1 [Example 23] | inhibition at 100 µM (H1 receptor): 41%
322 | O=C1CCc2cccc(OCc3cccc(OCc4ccc5ccccc5n4)c3)c2N1 [Example 8, 8-[3-(2-Quinolinylmethoxy)benzyloxy]-1,2,3,4-tetrahydroquinolin-2-one] | Kd (H1 receptor): 145000 nM
302 | Cc1ccc(OCc2ccc(OCc3ccc4ccccc4n3)cc2)c2cc(C(=O)O)c(=O)[nH]c12 [Example 52, 8-methyl-2-oxo-5-[4-(2-quinolinylmethoxy)benzyloxy]-1,2-dihydroquinoline-3-carboxylic acid] | –
223 | CC1(C)C(=O)Nc2cc(OC(=O)c3cccc(OCc4ccc5ccccc5n4)c3)ccc21 [Example 60, 3,3-Dimethyl-6-[3-(2-quinolinylmethoxy)benzoyloxy]-2,3-dihydro-1H-indol-2-one] | inhibition at 100 µM (H1 receptor): 38%
301 | O=C1CCc2cccc(OCc3ccc(OCc4ccc5ccccc5n4)cc3)c2N1 [Example 24, 8-[4-(2-Quinolinylmethoxy)benzyloxy]-1,2,3,4-tetrahydroquinolin-2-one] | Kd (H1 receptor): 25800 nM
209 | O=C1CCc2ccc(OCc3cccc(OCc4ccc5ccccc5n4)c3)cc2N1 [Example 7] | inhibition at 100 µM (H1 receptor): 46%
129 | O=C1CCCc2cc(OCc3ccc(OCc4ccc5ccccc5n4)cc3)ccc2N1 [Example 25, 7-[4-(2-Quinolinylmethoxy)benzyloxy]-2,3,4,5-tetrahydro-1H-benzo[b]azepin-2-one] | Kd (H1 receptor): 57800 nM
1080 | O=C(O)c1cc2cc(OCc3cccc(OCc4ccc5ccccc5n4)c3)ccc2[nH]c1=O [Example 50, 2-oxo-6-[3-(2-quinolinylmethoxy)benzyloxy]-1,2-dihydroquinoline-3-carboxylic acid] | –
13 | O=C1CSc2cc(OCc3cccc(/C=C/c4ccc5ccc(Cl)cc5n4)c3)ccc2N1 [Example 81, trans-7-[3-[2-(7-chloroquinolin-2-yl)ethenyl]benzyloxy]-2H-3,4-dihydro-1,4-benzothiazin-3-one] | –
46.2 | O=C1CSc2cc(NC(=O)c3cccc(OCc4ccc5ccccc5n4)c3)ccc2N1 [Example 72, 7-[3-(2-Quinolinylmethoxy)benzoylamino]-3,4-dihydro-2H-1,4-benzothiazin-3-one] | –
118 | N#Cc1cc2cc(OCc3cccc(OCc4ccc5ccccc5n4)c3)ccc2[nH]c1=O [Example 1, 3-cyano-6-[3-(2-quinolinylmethoxy)benzyloxy]-1,2-dihydroquinolin-2-one] | –
303 | Cc1ccc(OCc2cccc(OCc3ccc4ccccc4n3)c2)c2c1NC(=O)C2(C)C [Example 13, 4-[3-(2-Quinolinylmethoxy)benzyloxy]-3,3,7-trimethyl-2,3-dihydro-1H-indol-2-one] | –
1560 | Cc1ccc(OCc2cccc(OCc3ccc4ccccc4n3)c2)c2ccc(=O)[nH]c12 [Example 2, 8-Methyl-5-[3-(2-quinolinylmethoxy)benzyloxy]-1,2-dihydroquinolin-2-one] | –
335 | Cc1ccc(OCc2cccc(OCc3ccc4ccccc4n3)c2)c2cc(-c3nn[nH]n3)c(=O)[nH]c12 [Example 47, 8-methyl-5-[3-(2-quinolinylmethoxy)benzyloxy]-3-(5-tetrazolyl)-1,2-dihydroquinolin-2-one] | –
304 | Cc1ccc(OCc2ccc(OCc3ccc4ccccc4n3)cc2)c2cc(-c3nn[nH]n3)c(=O)[nH]c12 [Example 48, 8-methyl-5-[4-(2-quinolinylmethoxy)benzyloxy]-3-(5-tetrazolyl)-1,2-dihydroquinolin-2-one] | –
